Values quoted from earlier work, collected in patent US20140171495A1, “STABLE PHARMACEUTICAL FORMULATION OF CABAZITAXEL” (Yung Shin Pharm.Ind. Co., Ltd., priority 2012, published 2014).

In the case of `CO[C@H]1C(=O)[C@]2(C)[C@@H](OC)C[C@H]3OC[C@@]3(OC(C)=O)[C@H]2[C@H](OC(=O)c2ccccc2)[C@]2(O)C[C@H](OC(=O)[C@H](O)[C@@H](NC(=O)OC(C)(C)C)c3ccccc3)C(C)=C1C2(C)C` [Cabazitaxel, (2α,5β,7β,10β,13α)-4-acetoxy-13-({(2R,3S)-3[(tertbutoxycarbonyl)amino]-2-hydroxy-3-phenylpropanoyl}oxy)-1-hydroxy-7,10-dimethoxy-9-oxo-5,20-epoxytax-11-en-2-yl benzoate-propan-2-one(1:1)], the solubility in alcohol (alcohol) is listed as “soluble” and the solubility in water (water) is listed as “practically insoluble”.
